Patent US20180353462A1, “[…] AGENTS […] FLAVONOID DERIVATIVES TARGETING KINASES, SIRTUINS AND ONCOGENIC AGENTS FOR THE TREATMENT OF CANCERS” (priority 2015, published 2018)

Columns and labels:
[1] = biological target: T1, BIKE (Homo sapiens, UniProt Q9NSY1); experiment: Kinase competition binding assay, BIKE; details: Table 1 kinase panel
T1 construct: made in house
Protocol: (§1) Cannabis flavonoids and their analogs were subjected to kinase inhibition assay. The compounds were first screened at a single concentration of 10 μM in the primary assay. […]. To determine the kd or IC50 values, competition binding assays were established, authenticated and executed as described previously. Fabian et al., “A Small Molecule-Kinase Interaction Map For Clinical Kinase Inhibitors.”, Nat Biotechnol, 23(3):329-36, Epub (2005). See also, Karaman et al., “A Quantitative Analysis Of Kinase Inhibitor Selectivity”, Nat. Biotechnol. […] For most assays, kinases were fused to T7 phage strains (Fabian, supra) and for the other assays, kinases were produced in HEK-293 cells after which they were tagged with DNA for quantitative PCR detection. In general, full-length constructs were used for small, single domain kinases, and catalytic domain constructs for large multi-domain kinases. The binding assays utilized streptavidin-coated magnetic beads treated with biotinylated small molecule ligands for 30 minutes at room temperature which generated affinity resins for the kinase assays. The liganded beads were blocked with excess biotin and washed with blocking buffer (SeaBlock (Pierce), 1% BSA, 0.05% Tween 20, 1 mM DTT) to remove unbound ligand and to reduce non-specific phage binding. […] Test compounds were prepared as 40× stocks in 100% DMSO and diluted directly into the assay (Final DMSO concentration=2.5%). All reactions were performed in polypropylene 384-well plates in a final volume of 0.04 ml. […] The beads were then re-suspended in elution buffer (1×PBS, 0.05% Tween 20, 0.5 μM non-biotinylated affinity ligand) and incubated at room temperature with shaking for 30 minutes. The kinase concentration in the eluates was measured by quantitative PCR. An illustration of the kinase interaction process is presented below. Kd/IC50 values were determined using a standard dose response curve using the hill equation. Curves were fitted using a non-linear least square fit with the Levenberg-Marquardt algorithm.
(§2) The compound(s) were screened at 10 μM and results for primary screen binding interactions are reported as ‘% Ctrl’, where lower numbers indicate stronger hits in the matrix.

[2] = biological target: T2, CK2a (Homo sapiens, UniProt P68400); experiment: Kinase competition binding assay, CK2a; details: Table 1 kinase panel
T2 construct: made in house
Protocol: as §1, §2

[3] = biological target: T3, CK2a2 (Homo sapiens, UniProt P19784); experiment: Kinase competition binding assay, CK2a2; details: Table 1 kinase panel
T3 construct: made in house
Protocol: as §1, §2

[4] = biological target: EFGR(L858R, T7790M); experiment: Kinase competition binding assay, EFGR(L858R, T7790M); details: Table 1 kinase panel
Protocol: as §1, §2

[5] = biological target: T4, FMS/CSF1R (Homo sapiens, UniProt P07333); experiment: Kinase competition binding assay, FMS/CSF1R; details: Table 1 kinase panel
T4 construct: made in house
Protocol: as §1, §2

[6] = biological target: T5, KIT (Homo sapiens, UniProt P10721); experiment: Kinase competition binding assay, KIT; details: Table 1 kinase panel
T5 construct: made in house
Protocol: as §1, §2

[7] = biological target: T6, KIT(V559D) (Homo sapiens, UniProt P10721, V559D); experiment: Kinase competition binding assay, KIT(V559D); details: Table 1 kinase panel
T6 construct: made in house
Protocol: as §1, §2

[8] = biological target: T7, MELK (Homo sapiens, UniProt Q14680); experiment: Kinase competition binding assay, MELK; details: Table 1 kinase panel
T7 construct: made in house
Protocol: as §1, §2

[9] = biological target: T8, PIK3CA(1800L) (Homo sapiens, UniProt P42336, I800L); experiment: Kinase competition binding assay, PIK3CA(1800L); details: Table 1 kinase panel
T8 construct: T7 phage fusion (most assays) or DNA tag for qPCR (HEK-293-made kinases); made in house
Protocol: as §1, §2

[10] = biological target: T9, PIM-3 (Homo sapiens, UniProt Q86V86); experiment: Kinase competition binding assay, PIM-3; details: Table 1 kinase panel
T9 construct: full-length constructs were used for small, single domain kinases; T7 phage fusion (most assays) or DNA tag for qPCR (HEK-293-made kinases); made in house
Protocol: as §1, §2

[11] = biological target: T10, PIP5K1A (Homo sapiens, UniProt Q99755); experiment: Kinase competition binding assay, PIP5K1A; details: Table 1 kinase panel
T10 construct: T7 phage fusion (most assays) or DNA tag for qPCR (HEK-293-made kinases); made in house
Protocol: as §1, §2

[12] = biological target: T11, SIRT-1 (Homo sapiens, UniProt Q96EB6); experiment: Inhibition of sirtuins, SIRT-1; type: biochemical; details: Table 3 SIRT
T11 sequence (Q96EB6 1-747): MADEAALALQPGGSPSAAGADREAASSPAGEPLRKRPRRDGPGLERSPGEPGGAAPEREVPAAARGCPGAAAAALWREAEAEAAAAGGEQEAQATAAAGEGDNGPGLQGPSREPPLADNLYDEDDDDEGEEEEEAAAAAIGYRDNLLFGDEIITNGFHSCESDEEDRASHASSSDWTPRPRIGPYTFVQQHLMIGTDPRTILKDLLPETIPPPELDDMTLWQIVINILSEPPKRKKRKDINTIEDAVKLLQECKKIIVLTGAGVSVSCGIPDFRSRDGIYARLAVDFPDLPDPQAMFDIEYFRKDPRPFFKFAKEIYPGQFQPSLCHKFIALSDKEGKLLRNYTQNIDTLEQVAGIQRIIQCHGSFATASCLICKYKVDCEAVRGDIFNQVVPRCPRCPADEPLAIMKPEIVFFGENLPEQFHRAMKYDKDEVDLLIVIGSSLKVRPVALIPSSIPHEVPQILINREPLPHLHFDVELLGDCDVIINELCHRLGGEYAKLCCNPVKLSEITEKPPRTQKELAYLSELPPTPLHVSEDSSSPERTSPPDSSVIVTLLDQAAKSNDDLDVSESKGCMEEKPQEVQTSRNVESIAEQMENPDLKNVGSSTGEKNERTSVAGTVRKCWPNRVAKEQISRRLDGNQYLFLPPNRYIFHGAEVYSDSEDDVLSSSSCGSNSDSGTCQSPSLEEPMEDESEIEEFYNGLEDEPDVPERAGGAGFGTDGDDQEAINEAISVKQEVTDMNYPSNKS
Description: (§3) Inhibition of Sirtuins, Matrix Metalloproteinase, Bromodomains was Also Confirmed Using Standard Protocols and the Results are Present in Table 2.

[13] = biological target: T12, SIRT-5 (Homo sapiens, UniProt Q9NXA8); experiment: Inhibition of sirtuins, SIRT-5; type: biochemical; details: Table 3 SIRT
T12 sequence (Q9NXA8 37-310): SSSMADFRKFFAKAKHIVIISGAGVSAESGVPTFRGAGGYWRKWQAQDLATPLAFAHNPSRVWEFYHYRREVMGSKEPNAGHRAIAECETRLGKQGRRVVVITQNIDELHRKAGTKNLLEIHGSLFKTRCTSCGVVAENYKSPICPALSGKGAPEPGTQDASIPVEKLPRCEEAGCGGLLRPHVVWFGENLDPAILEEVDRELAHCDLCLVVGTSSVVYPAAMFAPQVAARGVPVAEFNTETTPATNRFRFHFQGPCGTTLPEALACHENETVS
Description: as §3

Structure (SMILES) | IC50 [1] | IC50 [2] | IC50 [3] | IC50 [4] | IC50 [5] | IC50 [6] | IC50 [7] | IC50 [8] | IC50 [9] | IC50 [10] | IC50 [11] | IC50 [12] | IC50 [13]
COc1cc(-c2cc(=O)c3c(O)c(C/C=C(\C)CCC=C(C)C)c(O)cc3o2)ccc1O [FBL-03A] | > 20000 nM | 740 nM | 350 nM | > 20000 nM | 1500 nM | 350 nM | 200 nM | > 20000 nM | > 20000 nM | > 20000 nM | > 20000 nM | 19 µM | 523 µM
COc1cc(-c2cc(=O)c3c(O)c(CC=C(C)C)c(O)cc3o2)ccc1O [FBL-03B] | > 20000 nM | 768 nM | 477 nM | > 1000 nM | 199 nM | < 1000 nM | < 1000 nM | 232 nM |  | 173 nM | > 10000 nM | 27.4 µM | 104 µM
COc1cc(-c2cc(=O)c3c(O)cc(O)c(C/C=C(\C)CCC=C(C)C)c3o2)ccc1O [FBL-03C] | 21 nM | 58 nM | 19 nM | 680 nM | 1200 nM | > 1000 nM | > 1000 nM | > 1000 nM | 780 nM | > 1000 nM | 360 nM | 39.5 µM | 132 µM
COc1ccc(-c2cc(=O)c3c(O)c(C/C=C(\C)CCC=C(C)C)c(O)cc3o2)cc1OC [FBL-03D] | > 30000 nM | > 30000 nM | > 30000 nM | > 30000 nM | > 30000 nM | > 30000 nM | > 30000 nM | > 30000 nM | > 30000 nM | > 30000 nM | > 30000 nM |  | 
COc1cc(-c2cc(=O)c3c(O)cc(O)c(CC=C(C)C)c3o2)ccc1O [FBL-03G] | > 20000 nM | 38 nM | 9.7 nM | > 1000 nM | 4 nM | < 1000 nM | < 1000 nM | 105 nM | > 20000 nM | 35 nM | > 20000 nM |  | 974 µM
